Data on seven molecules can be found in paper PMC2709273 (The Journal of pharmacology and experimental therapeutics, 2008).

Entries after “also recorded” stand apart in the source; their conditions may differ. Where two headings read alike, the source gives them in different places. Where a SMILES comes first, the peptide text is derived from it.

In test [1] the target is native α7-containing nAChRs (rat CA1 stratum radiatum interneurons) (Rattus norvegicus, UniProt Q05941). In kind it is cell-based.
The next test has as its target α2β2 nAChRs (Rattus norvegicus, UniProt P12389+P12390). In kind it is cell-based.
A further test addresses α4β2 nAChRs (Rattus norvegicus, UniProt P09483+P12390). In kind it is cell-based.
The target in test [2] is T1, α7 nAChRs (Rattus norvegicus, UniProt Q05941). In kind it is cell-based.
Test [3] addresses homomeric α7 nicotinic acetylcholine receptor expressed in X. laevis oocytes (UniProt Q05941).
Test [4] deals with T1, α7 nAChRs. To be noted: native and expressed receptors, cited from earlier work.
Setting [5] is: heteromeric nAChRs, X. laevis oocytes.

Sequence of α2β2 nAChRs (P12389 28-511): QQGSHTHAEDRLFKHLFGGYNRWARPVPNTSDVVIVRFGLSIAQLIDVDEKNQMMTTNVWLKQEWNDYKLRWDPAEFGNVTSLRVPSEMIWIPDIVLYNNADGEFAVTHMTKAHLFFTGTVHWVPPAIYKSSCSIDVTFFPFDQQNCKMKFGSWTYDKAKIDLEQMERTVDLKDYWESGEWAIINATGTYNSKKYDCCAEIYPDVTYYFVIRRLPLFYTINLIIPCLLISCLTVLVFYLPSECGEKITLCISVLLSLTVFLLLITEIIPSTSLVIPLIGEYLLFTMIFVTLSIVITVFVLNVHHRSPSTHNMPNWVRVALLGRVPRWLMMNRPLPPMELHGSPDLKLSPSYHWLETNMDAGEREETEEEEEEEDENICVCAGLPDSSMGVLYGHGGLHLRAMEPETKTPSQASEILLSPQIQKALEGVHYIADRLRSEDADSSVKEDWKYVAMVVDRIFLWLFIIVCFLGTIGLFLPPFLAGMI
Sequence of α2β2 nAChRs (P12390 25-500): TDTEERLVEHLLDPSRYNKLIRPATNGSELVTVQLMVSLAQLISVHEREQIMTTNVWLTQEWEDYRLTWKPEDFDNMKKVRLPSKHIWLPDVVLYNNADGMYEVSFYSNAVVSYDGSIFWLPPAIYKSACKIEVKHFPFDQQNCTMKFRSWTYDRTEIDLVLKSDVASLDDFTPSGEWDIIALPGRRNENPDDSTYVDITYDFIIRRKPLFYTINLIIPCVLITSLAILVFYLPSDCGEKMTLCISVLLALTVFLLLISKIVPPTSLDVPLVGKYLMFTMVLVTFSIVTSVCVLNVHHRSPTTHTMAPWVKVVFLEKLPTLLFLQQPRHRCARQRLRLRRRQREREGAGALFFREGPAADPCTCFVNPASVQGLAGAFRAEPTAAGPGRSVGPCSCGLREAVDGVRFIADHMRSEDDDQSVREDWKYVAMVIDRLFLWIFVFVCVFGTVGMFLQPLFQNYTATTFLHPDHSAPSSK
T1 sequence (Q05941 23-502): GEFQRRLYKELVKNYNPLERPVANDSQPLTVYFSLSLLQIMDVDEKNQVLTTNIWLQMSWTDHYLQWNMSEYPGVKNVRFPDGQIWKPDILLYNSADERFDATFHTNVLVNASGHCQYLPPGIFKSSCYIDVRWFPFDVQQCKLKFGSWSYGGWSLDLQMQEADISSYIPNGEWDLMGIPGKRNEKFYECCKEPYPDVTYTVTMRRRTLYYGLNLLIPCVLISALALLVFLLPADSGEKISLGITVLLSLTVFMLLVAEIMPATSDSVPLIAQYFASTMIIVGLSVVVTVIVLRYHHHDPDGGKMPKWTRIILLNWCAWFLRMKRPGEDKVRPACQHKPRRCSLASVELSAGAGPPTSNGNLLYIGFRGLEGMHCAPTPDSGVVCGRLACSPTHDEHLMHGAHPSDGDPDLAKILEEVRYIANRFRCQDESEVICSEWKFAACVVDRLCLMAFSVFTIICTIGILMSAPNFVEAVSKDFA
Sequence of native α7-containing nAChRs (rat CA1 stratum radiatum interneurons) (Q05941 23-502): as above
Sequence of α4β2 nAChRs (P09483 31-630): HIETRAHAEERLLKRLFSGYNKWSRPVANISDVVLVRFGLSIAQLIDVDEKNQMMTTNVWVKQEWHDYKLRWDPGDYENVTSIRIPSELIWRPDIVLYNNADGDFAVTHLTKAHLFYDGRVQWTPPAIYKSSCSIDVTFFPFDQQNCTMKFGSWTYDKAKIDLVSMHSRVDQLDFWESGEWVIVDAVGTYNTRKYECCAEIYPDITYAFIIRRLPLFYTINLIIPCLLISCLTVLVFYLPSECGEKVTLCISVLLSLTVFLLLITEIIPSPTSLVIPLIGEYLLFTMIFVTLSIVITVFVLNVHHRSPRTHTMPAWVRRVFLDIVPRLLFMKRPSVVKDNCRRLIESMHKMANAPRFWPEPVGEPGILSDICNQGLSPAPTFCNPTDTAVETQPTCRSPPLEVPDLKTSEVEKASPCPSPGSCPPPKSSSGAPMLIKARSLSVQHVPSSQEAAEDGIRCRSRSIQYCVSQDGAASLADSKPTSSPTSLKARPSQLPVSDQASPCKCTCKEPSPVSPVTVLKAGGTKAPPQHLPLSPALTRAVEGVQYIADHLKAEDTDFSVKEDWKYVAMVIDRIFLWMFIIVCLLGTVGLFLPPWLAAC
Sequence of α4β2 nAChRs (P12390 25-500): as the sequence (P12390 25-500) above
Sequence of homomeric α7 nicotinic acetylcholine receptor expressed in X. laevis oocytes (Q05941 23-502): as the sequence (Q05941 23-502) above

Turning to `CC(=O)N[C@@H](CCCCN)C(=O)N[C@@H](CCCCN)C(=O)N[C@@H](CCCCN)C(=O)N[C@@H](CCCCN)C(=O)N[C@@H](CCCCN)C(=O)N[C@@H](CCCNC(=N)N)C(=O)N[C@@H](Cc1ccccc1)C(=O)N[C@@H](CO)C(=O)N[C@@H](Cc1ccccc1)C(=O)N[C@@H](CCCCN)C(=O)N[C@@H](CCCCN)C(=O)N[C@@H](CO)C(=O)N[C@@H](Cc1ccccc1)C(=O)N[C@@H](CCCCN)C(=O)N[C@@H](CC(C)C)C(=O)N[C@@H](CO)C(=O)NCC(=O)N[C@@H](Cc1ccccc1)C(=O)N[C@@H](CO)C(=O)N[C@@H](Cc1ccccc1)C(=O)N[C@@H](CCCCN)C(=O)N[C@@H](CCCCN)C(=O)N[C@@H](CC(N)=O)C(=O)N[C@@H](CCCCN)C(=O)N[C@@H](CCCCN)C(N)=O` [MARCKS ED peptide] (Ac-KKKKKRFSFKKSFKLSGFSFKKNKK-NH2), in test [1] (acute rat hippocampal slices), the “block of native α7 nAChRs in hippocampal interneurons (in words)” value is “able to block native α7 nAChRs in a dose-dependent manner”. For the same molecule, in test [1] (bath application), the “effect on baseline current in hippocampal interneurons” value was “no effect” and the “onset of inhibition, hippocampal slices” value was “slow”. The inhibition at 1 µM in test [1] (read-out: inhibition of ACh-evoked responses in hippocampal interneurons, 1 µM) amounted to 59 ± 13%. Also, in test [1] (read-out: inhibition of ACh-evoked responses in hippocampal interneurons, 3 µM), the inhibition at 3 µM came out at 92 ± 2%. Besides, the inhibition at 10 µM in test [1] (read-out: inhibition of ACh-evoked responses in hippocampal interneurons, 10 µM) stood at 100%. The “recovery of responses after washout, hippocampal slices” value in test [1] (within 20 min of washout, two to three interneurons) is given as “do not recover after MARCKS ED peptide inhibition”. Moreover, the “potency at α2β2 compared with α7 nAChRs” value at α2β2 nAChRs (IC50 comparison by F test) is on record as “decreased potency; also recorded: less potent inhibition”. For the same molecule, on α2β2 nAChRs (setting [5]), the “dissociation from α2β2 nAChRs relative to α7” value is “appears to dissociate more rapidly from heteromeric nAChRs”. Moreover, the “potency at α4β2 compared with α7 nAChRs” value at α4β2 nAChRs (IC50 comparison by F test) was “decreased potency; also recorded: less potent inhibition”. Moreover, the “dissociation from α4β2 nAChRs relative to α7” value at α4β2 nAChRs (setting [5]) is given as “appears to dissociate more rapidly from heteromeric nAChRs”. Moreover, on α7 nAChRs [2] (1 µM peptide, +30 vs -60 mV), the “inhibition not because of open channel block” value is given as 86% and the “voltage-dependent part of the inhibition” value was determined as 14%. For the same molecule, the onset of inhibition result on α7 nAChRs [2] (1 µM, X. laevis oocytes) is reported as “rapid”. In addition, the “voltage dependence of inhibition” value at α7 nAChRs [2] (+30 and -60 mV) was “activity- and voltage-independent; also recorded: voltage- and activity-independent”. Besides, on α7 nAChRs [2] (X. laevis oocytes), the “inhibition of ACh-evoked α7 nAChR responses (in words)” value (“inhibition … (in words)” below) is “completely inhibited”; the “washout / recovery from inhibition” value is “slow and slow recovery during washout and slow to recover with washout”. Further, the “activity (use) dependence of inhibition” value on α7 nAChRs [2] (peptide bath applied 10 min without ACh stimulation, then ACh) was “activity- and voltage-independent; also recorded: there was not a use-dependent component of the peptide block; also recorded: voltage- and activity-independent”. Further, the inhibition at 1 µM on α7 nAChRs [2] (read-out: activity-independent inhibition of α7 nAChRs) stood at 98 ± 2%. Besides, on α7 nAChRs [2] (read-out: inhibition of ACh-induced α7 nAChR peak current responses), the inhibition at 1 µM is 99 ± 0.2%. In addition, the inhibition at 0.1 µM at α7 nAChRs [2] (read-out: inhibition of α7 ACh responses at 100 nM) is 90 ± 2%. The inhibition at 1 µM on α7 nAChRs [2] (read-out: inhibition still present after washout) worked out at 82 ± 3%.

KKKKKRFDFKKDFKLDGFDFKKNK [MARCKS S/D]: the “inhibition … (in words)” value against α7 nAChRs [2] (X. laevis oocytes) was “unable to inhibit ACh-mediated α7 nAChR responses; also recorded: lack of inhibition of nAChR responses”.

For the molecule “MARCKS154–165: truncated form of the MARCKS ED peptide, purchased from AnaSpec (KKKRFSFKKSFK; UniProt P29966 154-165, looked up, fragment)”, the “inhibition … (in words)” value with α7 nAChRs [2] (X. laevis oocytes) is on record as “unable to significantly inhibit α7 nAChRs”.

Take “MARCKS159–165: truncated form of the MARCKS ED peptide, purchased from AnaSpec (SFKKSFK; UniProt P29966 159-165, looked up, fragment)”: the “inhibition … (in words)” value in the test with α7 nAChRs [2] (X. laevis oocytes) is “unable to significantly inhibit α7 nAChRs”.

For MARCKS_(154–165) peptide, the percentage block of ACh-evoked α7 nAChR current in oocytes, peptide 1 µM in test [3] was determined as 12%.

In turn, MARCKS_(159–165) peptide registered a percentage block of ACh-evoked α7 nAChR current in oocytes, peptide 1 µM in test [3] of 5%.

Take “β-Amyloid1–42: brain-derived peptide β-amyloid1–42”: the “effect on α7 nAChRs” value is recorded as “agonism” with α7 nAChRs [4] (ref Dineley et al., 2002, Dougherty et al., 2003); “almost complete antagonism” with α7 nAChRs [4] (ref Liu et al., 2001, Grassi et al., 2003); “minimal to no antagonism” with α7 nAChRs [4] (ref Pettit et al., 2001, Lamb et al., 2005).
